Experiments:
[1] = target: T1, Amine oxidase [flavin-containing] B (Rattus norvegicus, UniProt P19643); assay: Monoamine Oxidase Assay; settings: pH 7.4; 38 °C
T1 sequence (P19643 whole entry): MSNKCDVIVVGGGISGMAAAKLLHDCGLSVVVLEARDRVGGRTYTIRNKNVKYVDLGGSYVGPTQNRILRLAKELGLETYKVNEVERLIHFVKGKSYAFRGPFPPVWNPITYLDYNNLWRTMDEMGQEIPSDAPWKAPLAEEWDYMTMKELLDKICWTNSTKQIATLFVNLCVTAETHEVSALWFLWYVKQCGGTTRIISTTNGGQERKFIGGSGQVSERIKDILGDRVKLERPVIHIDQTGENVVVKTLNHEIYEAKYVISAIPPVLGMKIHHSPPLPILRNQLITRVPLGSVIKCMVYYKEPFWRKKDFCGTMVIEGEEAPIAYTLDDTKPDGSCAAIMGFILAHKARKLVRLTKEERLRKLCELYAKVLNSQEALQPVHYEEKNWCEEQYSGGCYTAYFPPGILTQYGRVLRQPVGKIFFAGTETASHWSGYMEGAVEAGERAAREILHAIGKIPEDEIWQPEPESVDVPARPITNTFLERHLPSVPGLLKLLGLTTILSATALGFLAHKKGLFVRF

[2] = target: T2, Amine oxidase [flavin-containing] A (Rattus norvegicus, UniProt P21396); assay: Monoamine Oxidase Assay; settings: pH 7.4; 38 °C
T2 sequence (P21396 whole entry): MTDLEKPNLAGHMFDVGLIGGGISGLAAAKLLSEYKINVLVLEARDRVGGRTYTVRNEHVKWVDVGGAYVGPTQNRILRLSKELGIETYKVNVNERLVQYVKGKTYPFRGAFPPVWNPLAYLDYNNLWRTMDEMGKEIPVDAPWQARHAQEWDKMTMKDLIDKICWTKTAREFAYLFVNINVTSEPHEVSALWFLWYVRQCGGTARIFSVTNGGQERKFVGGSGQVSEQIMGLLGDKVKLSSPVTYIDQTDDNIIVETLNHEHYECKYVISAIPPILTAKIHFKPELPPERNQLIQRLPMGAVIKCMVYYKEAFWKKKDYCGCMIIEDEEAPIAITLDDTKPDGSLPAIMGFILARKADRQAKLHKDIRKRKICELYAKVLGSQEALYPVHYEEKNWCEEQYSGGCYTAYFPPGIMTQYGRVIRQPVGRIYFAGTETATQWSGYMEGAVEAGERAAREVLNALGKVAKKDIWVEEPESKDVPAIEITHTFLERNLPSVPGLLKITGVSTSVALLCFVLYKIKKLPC

Acetylcholinesterase = Acetylcholinesterase (Electrophorus electricus, UniProt O42275); assay: AChE and BuChE Inhibition Assay; settings: pH 8; 25 °C
Protocol: (§1) This spectrophotometric assay is based on the reaction of 5,5-dithio-bis(2-nitrobenzoic)acid (DTNB) with thiocholine to yield a colored product. Shimadzu (Kyoto, Japan) UV-1700 UV-vis spectrophotometer was used to record the measurements. The enzyme solutions were prepared at 2.5 units/mL concentrationin 1% gelatin solution. BChE/AChE and compound solutions (50 μL each) in 2% DMSO at 10^-1-10^-6 mM concentration were added to 3 mL phosphate buffer (pH 8 &plusnm; 0.1)followed by incubation for 5 min at 25 °C. The reaction was commenced by the addition of acetylthiocholine iodide (ATC) (10 μL) and DTNB (50 μL) to the enzyme-inhibitor mixture. […] The blank reading contained 10 μL substrate, 50 μL DTNB, 50 μL (2%) DMSO, and 3 mL buffer. The reaction was performed in triplicate.

[3] = target: Carboxylic ester hydrolase (Equus caballus, UniProt Q9N1N9); assay: AChE and BuChE Inhibition Assay; settings: pH 8; 25 °C
Protocol: as §1

Acetylcholinesterase, sequence (O42275 whole entry): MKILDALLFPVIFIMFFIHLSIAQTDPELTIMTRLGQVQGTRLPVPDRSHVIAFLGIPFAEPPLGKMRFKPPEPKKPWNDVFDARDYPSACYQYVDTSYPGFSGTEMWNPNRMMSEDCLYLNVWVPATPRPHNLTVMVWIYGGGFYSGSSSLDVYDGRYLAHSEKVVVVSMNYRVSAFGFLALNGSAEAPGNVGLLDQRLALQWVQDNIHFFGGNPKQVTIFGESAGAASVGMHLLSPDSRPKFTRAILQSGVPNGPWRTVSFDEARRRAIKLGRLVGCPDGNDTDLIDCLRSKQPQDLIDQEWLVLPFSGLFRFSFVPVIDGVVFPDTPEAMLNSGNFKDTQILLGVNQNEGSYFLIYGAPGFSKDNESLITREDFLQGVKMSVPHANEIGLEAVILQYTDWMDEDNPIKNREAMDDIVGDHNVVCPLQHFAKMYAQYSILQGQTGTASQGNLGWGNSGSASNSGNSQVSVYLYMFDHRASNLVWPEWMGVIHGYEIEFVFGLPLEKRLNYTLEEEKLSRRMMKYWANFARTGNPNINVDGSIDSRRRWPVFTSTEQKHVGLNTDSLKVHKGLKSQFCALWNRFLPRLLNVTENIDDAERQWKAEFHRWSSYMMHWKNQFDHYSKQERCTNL
Carboxylic ester hydrolase, sequence (Q9N1N9 whole entry): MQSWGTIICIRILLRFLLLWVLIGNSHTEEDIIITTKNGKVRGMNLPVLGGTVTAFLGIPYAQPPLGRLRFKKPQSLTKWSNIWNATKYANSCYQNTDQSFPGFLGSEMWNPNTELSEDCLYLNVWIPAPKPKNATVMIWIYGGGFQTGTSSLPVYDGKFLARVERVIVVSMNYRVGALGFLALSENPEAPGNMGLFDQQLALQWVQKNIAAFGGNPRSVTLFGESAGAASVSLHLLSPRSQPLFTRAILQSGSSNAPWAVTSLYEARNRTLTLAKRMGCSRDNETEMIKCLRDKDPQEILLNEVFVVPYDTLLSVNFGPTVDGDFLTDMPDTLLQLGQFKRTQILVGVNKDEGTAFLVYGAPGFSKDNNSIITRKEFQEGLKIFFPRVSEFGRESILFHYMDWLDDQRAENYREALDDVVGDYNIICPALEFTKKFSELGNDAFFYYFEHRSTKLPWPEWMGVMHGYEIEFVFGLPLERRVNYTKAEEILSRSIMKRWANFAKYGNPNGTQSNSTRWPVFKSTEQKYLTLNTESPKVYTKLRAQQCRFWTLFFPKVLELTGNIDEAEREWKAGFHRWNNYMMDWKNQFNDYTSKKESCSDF

## COc1cccc(/C=C2\CCc3ccc([N+](=O)[O-])cc3C2=O)c1Cl [(2E)-2-[(2-chloro-3-methoxyphenyl)methylidene]-7-nitro-1,2,3,4-tetrahydronaphthalen-1-one (3ae)]
[1]
  IC50: 6.8 µM
[2]
  IC50: 7.23 µM
Acetylcholinesterase
  IC50: 9.14 µM
[3]
  IC50: 27.9 µM

## COc1cc(/C=C2\CCc3ccc(Br)cc3C2=O)c(Br)c(OC)c1OC [(2E)-7-bromo-2-[(2-bromo-3,4,5-trimethoxyphenyl)methylidene]-1,2,3,4-tetrahydronaphthalen-1-one (3aa)]
[1]
  IC50: 44.6 µM
[2]
  IC50: > 100 µM
Acetylcholinesterase
  IC50: > 100 µM
[3]
  IC50: > 100 µM

## COc1ccc(/C=C2\CCc3ccc(Br)cc3C2=O)c(Cl)c1OC [(2E)-7-bromo-2-[(2-chloro-3,4-dimethoxyphenyl)methylidene]-1,2,3,4-tetrahydronaphthalen-1-one (3z)]
[1]
  IC50: 56.4 µM
[2]
  IC50: > 100 µM
Acetylcholinesterase
  IC50: > 100 µM
[3]
  IC50: > 100 µM

## COc1cccc(/C=C2\CCc3ccc(Br)cc3C2=O)c1Cl [(2E)-7-bromo-2-[(2-chloro-3-methoxyphenyl)methylidene]-1,2,3,4-tetrahydronaphthalen-1-one (3y)]
[1]
  IC50: 67.9 µM
[2]
  IC50: > 100 µM
Acetylcholinesterase
  IC50: > 100 µM
[3]
  IC50: > 100 µM

## COc1ccc(/C=C2\CCc3ccc(Cl)cc3C2=O)c(Cl)c1OC [(2E)-7-chloro-2-[(2-chloro-3,4-dimethoxyphenyl)methylidene]-1,2,3,4-tetrahydronaphthalen-1-one (3k)]
[1]
  IC50: > 100 µM
[2]
  IC50: > 100 µM
Acetylcholinesterase
  IC50: > 100 µM
[3]
  IC50: 56.7 µM

## COc1cccc(/C=C2\CCc3ccc(Cl)cc3C2=O)c1Cl [(2E)-7-chloro-2-[(2-chloro-3-methoxyphenyl)methylidene]-1,2,3,4-tetrahydronaphthalen-1-one (3j)]
[1]
  IC50: > 100 µM
[2]
  IC50: > 100 µM
Acetylcholinesterase
  IC50: > 100 µM
[3]
  IC50: > 100 µM

Source: BindingDB's records for doi:10.1111/cbdd.12822 (Wuhan University of Technology, 2016)
